Measurements from the NIST ThermoML archive (doi:10.1016/j.fluid.2015.11.037).
Numbers after ± are expanded uncertainties.

Legend:
[1] = activity coefficient (dimensionless); of the first substance listed, at infinite dilution; xn = mol fraction of the nth substance listed; conditions: Liquid, x1 = 0
[2] = Liquid, Ebulliometric method (Recirculating still)
[3] = 303.15 K, 100 kPa, Rayleigh distillation
[4] = 313.15 K, 100 kPa, Rayleigh distillation
[5] = 323.15 K, 100 kPa, Rayleigh distillation
[6] = 333.15 K, 100 kPa, Rayleigh distillation
[7] = 293.15 K, 46.85 kPa, comparative ebulliometry
[8] = 303.15 K, 69.6 kPa, comparative ebulliometry
[9] = 311.15 K, 93.62 kPa, comparative ebulliometry

Compound: ClCCl [dichloromethane] + CCCCO
- activity coefficient ([1]; 283.15 K, 100 kPa, inert gas stripping): 1.85 ± 0.1
- activity coefficient ([1]; 293.15 K, 100 kPa, inert gas stripping): 1.86 ± 0.11
- activity coefficient ([1]; 303.15 K, 100 kPa, inert gas stripping): 1.86 ± 0.11
- activity coefficient ([1]; 313.15 K, 100 kPa, inert gas stripping): 1.86 ± 0.11
- activity coefficient ([1]; 323.15 K, 100 kPa, inert gas stripping): 1.83 ± 0.1
- activity coefficient ([1]; 333.15 K, 100 kPa, inert gas stripping): 1.76 ± 0.1

Compound: ClCCl [dichloromethane] + CO
- activity coefficient ([1]; 293.15 K, 100 kPa, Rayleigh distillation): 2.84 ± 0.24
- activity coefficient [1, 3]: 2.87 ± 0.23
- activity coefficient [1, 4]: 2.87 ± 0.23
- activity coefficient [1, 5]: 2.83 ± 0.23
- activity coefficient [1, 6]: 2.81 ± 0.22

Compound: CCO [ethanol] + ClCCl
- activity coefficient [1, 7]: 9.56 ± 0.78
- activity coefficient [1, 8]: 7.98 ± 0.65
- activity coefficient [1, 9]: 7.09 ± 0.58

Compound: ClCCl [dichloromethane]
- vapor or sublimation pressure ([2]; 285.89 K): 34.66 ± 0.065 kPa
- vapor or sublimation pressure ([2]; 287.58 K): 37.33 ± 0.068 kPa
- vapor or sublimation pressure ([2]; 289.94 K): 41.33 ± 0.073 kPa
- vapor or sublimation pressure ([2]; 292.12 K): 45.33 ± 0.078 kPa
- vapor or sublimation pressure ([2]; 294.15 K): 49.33 ± 0.083 kPa
- vapor or sublimation pressure ([2]; 296.05 K): 53.33 ± 0.09 kPa
- vapor or sublimation pressure ([2]; 298.41 K): 58.66 ± 0.095 kPa
- vapor or sublimation pressure ([2]; 300.61 K): 63.99 ± 0.1 kPa
- vapor or sublimation pressure ([2]; 302.67 K): 69.33 ± 0.11 kPa
- vapor or sublimation pressure ([2]; 304.61 K): 74.66 ± 0.12 kPa
- vapor or sublimation pressure ([2]; 306.43 K): 79.99 ± 0.12 kPa
- vapor or sublimation pressure ([2]; 308.17 K): 85.33 ± 0.13 kPa
- vapor or sublimation pressure ([2]; 309.82 K): 90.66 ± 0.13 kPa
- vapor or sublimation pressure ([2]; 311.39 K): 95.99 ± 0.14 kPa

Compound: CO [methanol] + ClCCl
- activity coefficient [1, 7]: 13.4 ± 1.3
- activity coefficient [1, 8]: 11.6 ± 1.1
- activity coefficient [1, 9]: 9.86 ± 0.89

Compound: ClCCl [dichloromethane] + CCO
- activity coefficient [1, 3]: 2.29 ± 0.18
- activity coefficient [1, 4]: 2.3 ± 0.18
- activity coefficient [1, 5]: 2.29 ± 0.18
- activity coefficient [1, 6]: 2.27 ± 0.18
- activity coefficient ([1]; 343.15 K, 100 kPa, Rayleigh distillation): 2.18 ± 0.25

Compound: ClCCl [dichloromethane] + CCCO
- activity coefficient ([1]; 283.15 K, 100 kPa, Inert gas stripping): 1.99 ± 0.12
- activity coefficient ([1]; 293.15 K, 100 kPa, Inert gas stripping): 2 ± 0.16
- activity coefficient ([1]; 303.15 K, 100 kPa, Inert gas stripping): 2.02 ± 0.16
- activity coefficient ([1]; 313.15 K, 100 kPa, Inert gas stripping): 2.05 ± 0.16
- activity coefficient ([1]; 323.15 K, 100 kPa, Inert gas stripping): 2.04 ± 0.16
- activity coefficient ([1]; 333.15 K, 100 kPa, Inert gas stripping): 2.02 ± 0.16
- activity coefficient [1, 6]: 2.06 ± 0.16

Compound: CCCCO [butan-1-ol] + ClCCl
- activity coefficient ([1]; 293.15 K, 100 kPa, differential distillation): 7.68 ± 0.65
- activity coefficient ([1]; 303.15 K, 100 kPa, differential distillation): 6.18 ± 0.51
- activity coefficient ([1]; 311.15 K, 100 kPa, differential distillation): 5.43 ± 0.57

Compound: CCCO [propan-1-ol] + ClCCl
- activity coefficient [1, 7]: 8.38 ± 0.7
- activity coefficient [1, 8]: 6.99 ± 0.61
- activity coefficient [1, 9]: 5.98 ± 0.51
